# In US20120219615A1, “Therapeutic Use of a TLR Agonist and Combination Therapy” (The Trustees of the University of Pennsylvania, priority 2010, published 2012):
# Where two headings read alike, the source gives them in different places.
# What was measured:
# TLR9 = target: T1, TLR9 (Homo sapiens, UniProt Q9NR96); test: Activity on TLR9; format: cell-based; conditions: concentrations up to 25 μM
# T1 sequence (Q9NR96 26-1032): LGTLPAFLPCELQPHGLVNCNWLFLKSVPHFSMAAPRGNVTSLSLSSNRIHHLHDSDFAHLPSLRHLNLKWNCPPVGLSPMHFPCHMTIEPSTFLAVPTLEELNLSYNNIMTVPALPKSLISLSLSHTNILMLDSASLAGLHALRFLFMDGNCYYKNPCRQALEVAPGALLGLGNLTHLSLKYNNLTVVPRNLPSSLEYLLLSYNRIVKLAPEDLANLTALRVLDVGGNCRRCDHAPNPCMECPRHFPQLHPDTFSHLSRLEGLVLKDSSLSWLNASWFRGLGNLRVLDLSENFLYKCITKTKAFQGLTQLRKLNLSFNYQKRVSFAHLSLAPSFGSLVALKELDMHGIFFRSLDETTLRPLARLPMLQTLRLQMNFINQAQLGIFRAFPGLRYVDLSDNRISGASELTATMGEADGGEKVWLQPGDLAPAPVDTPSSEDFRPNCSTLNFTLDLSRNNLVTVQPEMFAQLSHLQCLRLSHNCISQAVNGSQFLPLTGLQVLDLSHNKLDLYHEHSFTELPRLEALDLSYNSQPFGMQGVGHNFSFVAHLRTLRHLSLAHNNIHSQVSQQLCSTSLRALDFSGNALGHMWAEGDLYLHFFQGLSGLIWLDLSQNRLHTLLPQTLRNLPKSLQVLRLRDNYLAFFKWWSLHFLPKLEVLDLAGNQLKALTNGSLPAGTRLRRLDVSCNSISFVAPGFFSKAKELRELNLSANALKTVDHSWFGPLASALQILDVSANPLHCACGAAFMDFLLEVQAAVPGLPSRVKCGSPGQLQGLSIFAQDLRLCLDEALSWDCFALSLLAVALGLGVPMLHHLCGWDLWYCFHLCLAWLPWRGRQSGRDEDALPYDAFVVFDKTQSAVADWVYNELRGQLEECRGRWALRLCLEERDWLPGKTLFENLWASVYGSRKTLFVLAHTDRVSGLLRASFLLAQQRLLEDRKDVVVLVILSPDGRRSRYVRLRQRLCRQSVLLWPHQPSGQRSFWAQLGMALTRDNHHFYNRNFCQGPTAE
# Protocol: The half-maximal effective concentration (EC50) for VTX-2337 activation of TLR8 and TLR7 was assessed in peripheral blood mononuclear cells (PBMCs) from 15 healthy donors and also in HEK293 cells transfected with TLR8 or TLR7 and an NF-κB driven reporter gene. […] Also it was observed that VTX-2337 had no activity on TLR2, TLR3, TLR4, TLR5, TLR6, or TLR9 at concentrations up to 25 μM.
# [1] = Phase I clinical study: pharmacokinetics after subcutaneous administration; format: in vivo; conditions: human; for DN AUC(0-∞) / DN Cmax: dose normalized; for DN AUC(0-∞) / DN Cmax / AUC(0-inf) / Cmax / half-life / Tmax: first dose; for AUC(0-inf) / Cmax / half-life / Tmax: plasma, sc
# Protocol: Study Procedures: VTX-2337 was administered weekly via subcutaneous injection on Days 1, 8, and 15 of a 28-day dosing cycle for two cycles. Using a modified Fibonacci dose-escalation scheme, successive cohorts received doses ranging from 0.1 mg/m^2 to 3.9 mg/m^2 of VTX-2337. Plasma samples were collected for pharmacokinetic analysis after the first dose of the first treatment cycle and for pharmacodynamic analyses after the first dose of the first and second treatment cycles.
# Samples were collected at 0.5, 1, 1.5, 2, 4, 8, and 24 hours after subcutaneous administration of the first dose of VTX-2337 and plasma levels of VTX-2337 were quantified by LC-MS/MS. VTX-2337 was rapidly absorbed into systemic circulation with the mean Tmax occurring between 0.5 and 0.8 hours following dosing. […] Peak plasma levels (Cmax) and total systemic exposure both increased with increasing dose. Dose normalized (DN) values for Cmax and AUC(0-∞) were calculated.
structure (smiles),measurement,setting,value
"CCCN(CCC)C(=O)C1=Cc2ccc(-c3ccc(C(=O)N4CCCC4)cc3)cc2N=C(N)C1 [VTX-2337, 2-amino-N,N-dipropyl-8-(4-(pyrrolidine-1-carbonyl)phenyl)-3H-benzo[b]azepine-4-carboxamide]",activity on TLR9,TLR9,no activity
same,DN AUC(0-∞),"[1]; s.c., 0.1 mg/m^2",31.2 (ng · hr/mL)/(mg/m^2)
same,DN Cmax,"[1]; s.c., 0.1 mg/m^2",15.2 (ng/ml)/(mg/m^2)
same,DN AUC(0-∞),"[1]; s.c., 0.2 mg/m^2",23.7 (ng · hr/mL)/(mg/m^2)
same,DN Cmax,"[1]; s.c., 0.2 mg/m^2",9.9 (ng/ml)/(mg/m^2)
same,DN AUC(0-∞),"[1]; s.c., 0.4 mg/m^2",27.4 (ng · hr/mL)/(mg/m^2)
same,DN Cmax,"[1]; s.c., 0.4 mg/m^2",16.7 (ng/ml)/(mg/m^2)
same,DN AUC(0-∞),"[1]; s.c., 0.8 mg/m^2",24.0 (ng · hr/mL)/(mg/m^2)
same,DN Cmax,"[1]; s.c., 0.8 mg/m^2",7.4 (ng/ml)/(mg/m^2)
same,DN AUC(0-∞),"[1]; s.c., 1.3 mg/m^2",22.7 (ng · hr/mL)/(mg/m^2)
same,DN Cmax,"[1]; s.c., 1.3 mg/m^2",8.4 (ng/ml)/(mg/m^2)
same,DN AUC(0-∞),"[1]; s.c., 2.0 mg/m^2",29.6 (ng · hr/mL)/(mg/m^2)
same,DN Cmax,"[1]; s.c., 2.0 mg/m^2",7.3 (ng/ml)/(mg/m^2)
same,DN AUC(0-∞),"[1]; s.c., 2.8 mg/m^2",28.7 (ng · hr/mL)/(mg/m^2)
same,DN Cmax,"[1]; s.c., 2.8 mg/m^2",7.1 (ng/ml)/(mg/m^2)
same,DN AUC(0-∞),"[1]; s.c., 3.9 mg/m^2",20.8 (ng · hr/mL)/(mg/m^2)
same,DN Cmax,"[1]; s.c., 3.9 mg/m^2",5.9 (ng/ml)/(mg/m^2)
same,pharmacokinetics over the dose ranges evaluated,"[1]; s.c., 0.1-3.9 mg/m^2",appeared to be linear
same,AUC(0-inf),[1]; 0.1 mg/m^2 (~0.0022 mg/kg),3.12 ng·h/mL
same,Cmax,[1]; 0.1 mg/m^2 (~0.0022 mg/kg),1.52 ng/mL
same,AUC(0-inf),[1]; 0.2 mg/m^2 (~0.0054 mg/kg),4.74 ng·h/mL
same,Cmax,[1]; 0.2 mg/m^2 (~0.0054 mg/kg),1.97 ng/mL
same,AUC(0-inf),[1]; 0.4 mg/m^2 (~0.011 mg/kg),10.9 ng·h/mL
same,Cmax,[1]; 0.4 mg/m^2 (~0.011 mg/kg),6.69 ng/mL
same,AUC(0-inf),[1]; 0.8 mg/m^2 (~0.022 mg/kg),19.2 ng·h/mL
same,Cmax,[1]; 0.8 mg/m^2 (~0.022 mg/kg),5.93 ng/mL
same,AUC(0-inf),[1]; 1.3 mg/m^2 (~0.035 mg/kg),29.5 ng·h/mL
same,Cmax,[1]; 1.3 mg/m^2 (~0.035 mg/kg),10.9 ng/mL
same,AUC(0-inf),[1]; 2.0 mg/m^2 (~0.054 mg/kg),59.1 ng·h/mL
same,Cmax,[1]; 2.0 mg/m^2 (~0.054 mg/kg),14.6 ng/mL
same,AUC(0-inf),[1]; 2.8 mg/m^2 (~0.076 mg/kg),80.3 ng·h/mL
same,Cmax,[1]; 2.8 mg/m^2 (~0.076 mg/kg),19.9 ng/mL
same,AUC(0-inf),[1]; 3.9 mg/m^2 (~0.105 mg/kg),81.1 ng·h/mL
same,Cmax,[1]; 3.9 mg/m^2 (~0.105 mg/kg),23 ng/mL
same,half-life,"[1]; s.c., 0.1 mg/m^2 (~0.0022 mg/kg), read-out: T1/2 (converted)",1.7 h
same,Tmax,"[1]; s.c., 0.1 mg/m^2 (~0.0022 mg/kg), read-out: Tmax",0.5 h
same,half-life,"[1]; s.c., 0.2 mg/m^2 (~0.0054 mg/kg), read-out: T1/2 (converted)",3 h
same,Tmax,"[1]; s.c., 0.2 mg/m^2 (~0.0054 mg/kg), read-out: Tmax",0.8 h
same,half-life,"[1]; s.c., 0.4 mg/m^2 (~0.011 mg/kg), read-out: T1/2 (converted)",6.6 h
same,Tmax,"[1]; s.c., 0.4 mg/m^2 (~0.011 mg/kg), read-out: Tmax",0.5 h
same,half-life,"[1]; s.c., 0.8 mg/m^2 (~0.022 mg/kg), read-out: T1/2 (converted)",5.3 h
same,Tmax,"[1]; s.c., 0.8 mg/m^2 (~0.022 mg/kg), read-out: Tmax",0.5 h
same,half-life,"[1]; s.c., 1.3 mg/m^2 (~0.035 mg/kg), read-out: T1/2 (converted)",5.6 h
same,Tmax,"[1]; s.c., 1.3 mg/m^2 (~0.035 mg/kg), read-out: Tmax",0.5 h
same,half-life,"[1]; s.c., 2.0 mg/m^2 (~0.054 mg/kg), read-out: T1/2 (converted)",6.7 h
same,Tmax,"[1]; s.c., 2.0 mg/m^2 (~0.054 mg/kg), read-out: Tmax",0.5 h
same,half-life,"[1]; s.c., 2.8 mg/m^2 (~0.076 mg/kg), read-out: T1/2 (converted)",5.7 h
same,Tmax,"[1]; s.c., 2.8 mg/m^2 (~0.076 mg/kg), read-out: Tmax",0.5 h
same,half-life,"[1]; s.c., 3.9 mg/m^2 (~0.105 mg/kg), read-out: T1/2 (converted)",5.3 h
same,Tmax,"[1]; s.c., 3.9 mg/m^2 (~0.105 mg/kg), read-out: Tmax",0.5 h
same,Tmax,"[1]; s.c., across cohorts 0.1-3.9 mg/m^2, read-out: mean Tmax",0.5 to 0.8 h
same,half-life,"[1]; s.c., across cohorts 0.1-3.9 mg/m^2, read-out: mean half-life (t1/2)",1.7 to 6.7 h
